Reference: patent US8470844B2, “Imidazoacridinone derivative compounds and methods for their use” (Technion Research & Development Foundation Limited, priority 2008, dated 2013)
Positions count from the first letter of the chain named.

Assays:
A549 cells = assay: MTT cytotoxicity assay, parental A549 cells; type: cell-based, Human; details: 96 hours exposure, mean of at least three experiments
Procedure: (§1) Tissue culture: Human non-small cell lung cancer A549 cells and T-cell leukemia CCRF-CEM cells were grown under monolayer conditions or up to a maximal density of 10^6 cells/ml (for CCRF-CEM cells) in RPMI-1640 medium (GIBCO) supplemented with 10% fetal calf serum, 2 mM glutamine, 100 μg/ml penicillin and 100 μg/ml streptomycin (Biological Industries, Beth-Haemek, Israel) in a humid atmosphere of 5% CO2. Drug resistant A549/K1.5 cells with ABCG2 overexpression were maintained under a continuous drug selection with 1.5 μM C-1305. Bram, E. E., et al., (2007) Biochem Pharmacol 74(1), 41-53.
(§2) Cytotoxicity and growth inhibition assays: The cytotoxic activity of the various IA antitumor agents was determined using the MTT assay. Poindessous, V., et al., (2003) Clin Cancer Res 9(7), 2817-2825.
(§3) Exponentially growing cells were seeded at 5×10^3 cells/well in 24-well plates (2 ml medium/well). Following an overnight incubation, cells were exposed to different drug concentrations for 96 hours. Cellular viability was determined by adding the tetrazolium salt MTT for 4 h at 37° C., followed by solubilization of the intracellular precipitated formazan in 1 ml DMSO and absorbance was determined by a microplate reader (ASYS Hitech GmbH, Austria). Drug concentrations required to inhibit cell growth by 50% (IC50) compared with untreated controls were determined from the curves of survival versus drug concentrations using the SlideWrite software (Advanced Graphics Software, Inc., Encinitas, Calif.). Resistance folds (RF) were calculated by dividing the IC50 value of the resistant cells by that of the parental cell line. Values presented are means of at least three independent experiments, each performed in duplicates.

A549/K1.5 cells = assay: MTT cytotoxicity assay, ABCG2-overexpressing A549/K1.5 cells; type: cell-based, Human
Procedure: as §1, §2, §3
Quantitative evaluation of ABCG2 interaction with various IA derivatives: The extent of ABCG2-mediated resistance was expressed using the Resistance Fold (RF) parameter representing the ratio between the IC50 values of the resistant cells and parental cells. Likewise, ABCG2-dependent differential accumulation of IAs in ABCG2-overexpressing A549/K1.5 cells was compared using the ratio of IA accumulation in the presence or absence of the potent ABCG2 inhibitor FTC. This was termed the FTC-dependent Accumulation Fold (AF) and was determined for each IA at a constant IA concentration of 10 μM.

ABCG2 (A549/K1.5 cells) = target: T1, ABCG2 (A549/K1.5 cells) (Homo sapiens, UniProt Q9UNQ0); assay: Fluorescence microscopy of nuclear accumulation of IAs in A549/K1.5 cells; type: cell-based; details: 10 μM IA, 1 hr
T1 construct: Drug resistant A549/K1.5 cells with ABCG2 overexpression were maintained under a continuous drug selection with 1.5 μM C-1305; endogenous in cells; host or cells: A549/K1.5 (C-1305-selected subline of human non-small cell lung cancer A549)
T1 sequence (Q9UNQ0 1-655): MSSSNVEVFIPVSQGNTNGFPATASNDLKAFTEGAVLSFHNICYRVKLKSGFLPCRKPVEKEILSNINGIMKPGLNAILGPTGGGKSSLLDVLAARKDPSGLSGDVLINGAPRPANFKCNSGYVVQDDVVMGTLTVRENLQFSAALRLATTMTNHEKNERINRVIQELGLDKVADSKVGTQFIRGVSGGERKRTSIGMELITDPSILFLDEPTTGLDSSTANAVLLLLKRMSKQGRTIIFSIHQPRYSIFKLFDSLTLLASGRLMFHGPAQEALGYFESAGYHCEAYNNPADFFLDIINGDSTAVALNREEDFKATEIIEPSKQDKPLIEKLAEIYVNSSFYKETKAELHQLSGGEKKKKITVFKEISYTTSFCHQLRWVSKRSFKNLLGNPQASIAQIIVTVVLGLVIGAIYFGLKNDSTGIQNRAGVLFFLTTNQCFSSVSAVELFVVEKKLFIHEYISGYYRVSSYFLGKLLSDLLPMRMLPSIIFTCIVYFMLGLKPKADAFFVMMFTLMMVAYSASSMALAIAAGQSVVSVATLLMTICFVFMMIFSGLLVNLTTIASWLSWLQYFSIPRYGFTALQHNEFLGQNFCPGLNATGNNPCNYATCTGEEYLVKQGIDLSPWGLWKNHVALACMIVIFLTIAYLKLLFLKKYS
Procedure: In immunofluorescence microscopy of plasma membrane targeting of ABCG2 and nuclear accumulation of IAs, cells (1×10^4/well) were seeded in 24-well plates (1 ml medium/well) and incubated for 2 days, following which some wells were supplemented with 10 μM IA-containing medium±5 μM FTC and incubated for 1 h at 37° C. Cells were then washed twice with ice-cold PBS containing 0.1% BSA and blocked for 10 min at 4° C. with PBS containing 5% BSA. Cells were then washed once with ice-cold PBS containing 0.1% BSA and incubated for 30 min at 4° C. with a Phycoerythrin-conjugated, affinity-purified 5D3 mouse anti-human ABCG2 monoclonal antibody (1:100; eBioscience). Unspecific fluorescence was determined using cells that were incubated only with a secondary Phycoerythrin (PE)-conjugated goat anti-mouse IgG (1:200; Jackson Immunoresearch Labs, West Grove, Pa.). Cells were then washed twice and subjected to fluorescence microscopy using a DMIRE2 fluorescence microscope equipped with a DC300FX camera (Leica Microsystems, Wetzlar, Germany).
In order to exclude the possibility that differential subcellular accumulation of IA derivatives is the basis of the observed difference in cytotoxicity and cellular fluorescence, A549/K1.5 cells were incubated with 10 μM of selected IA derivatives from both group A and B in the presence or absence of FTC and subjected to fluorescence microscopy.

[1] = test system: untransfected HEK293 cells; assay: Flow cytometric accumulation in untransfected HEK293 cells; type: cell-based, Human; details: ±5 μM FTC
Procedure: (§4) For cytotoxicity and accumulation experiments, cells were grown in drug-free medium for at least one week prior to the experiments. Human embryonic kidney cells (HEK293) and their stable transfectants overexpressing the R482, G482 and T482 ABCG2 were grown in the above RPMI-1640 medium supplemented with 2 mg/ml G-418. Bram, E. E., et al., (2006) Cancer Chemother Pharmacol 58(6), 826-834.
(§5) IA derivative and tetramethylrosamine (TMR) accumulation in parental HEK293 and their HEK293/ABCG2 R/G/T482 transfectants were carried out as described herein with the a slight amendment of using a single IA concentration of 1 μM ±FTC (5 μM) for the selected as well as 0.1 μM for TMR accumulation. Robey, R. W., et al., (2003) Br J Cancer 89(10), 1971-1978. Cellular fluorescence was determined using a FACSCalibur (BD Bioscience, San Jose, Calif. USA) flow cytometer. FL1-H excitation of IAs was at 488 nm and emission was collected at 525 nm, whereas FL2-H excitation of TMR was at […] and emission was collected at 574 nm. Flow cytometric results are presented as means±SD of 3 independent experiments.
(§6) Bram, E. E., et al., (2006) Cancer Chemother Pharmacol 58(6), 826-834.

wild type R482 ABCG2 = target: T2, wild type R482 ABCG2 (Homo sapiens, UniProt Q9UNQ0); assay: Flow cytometric accumulation in HEK293 transfectants, wild type R482 ABCG2; details: HEK293 wild type R482 ABCG2, 0.1 μM TMR, ±5 μM FTC
T2 sequence (Q9UNQ0 1-655): T1 sequence (Q9UNQ0 1-655)
Procedure: as §4, §5, §6

mutant G482 ABCG2 = target: T3, mutant G482 ABCG2 (Homo sapiens, UniProt Q9UNQ0, R482G); assay: Flow cytometric accumulation in HEK293 transfectants, mutant G482 ABCG2; details: HEK293 mutant G482 ABCG2, 0.1 μM TMR, ±5 μM FTC
T3 sequence (Q9UNQ0 1-655 R482G): T1 sequence (Q9UNQ0 1-655) with R482G
Procedure: as §4, §5, §6

mutant T482 ABCG2 = target: T4, mutant T482 ABCG2 (Homo sapiens, UniProt Q9UNQ0, R482T); assay: Flow cytometric accumulation in HEK293 transfectants, mutant T482 ABCG2; details: HEK293 mutant T482 ABCG2, 0.1 μM TMR, ±5 μM FTC
T4 sequence (Q9UNQ0 1-655 R482T): T1 sequence (Q9UNQ0 1-655) with R482T
Procedure: as §4, §5, §6

Row | Compound | IC50 (A549 cells) [µM] | IC50 (A549/K1.5 cells; ABCG2-overexpressing A549/K1.5 cells, 96 hours exposure, MTT) [µM] | RF (resistance fold) (A549/K1.5 cells; IC50 of A549/K1.5 cells divided by IC50 of parental A549 cells) | resistance of A549/K1.5 cells (in words) (A549/K1.5 cells; versus parental A549 cells) | intracellular accumulation (fluorescence microscopy) (ABCG2 (A549/K1.5 cells); absence of FTC) | nuclear accumulation (fluorescence microscopy) (ABCG2 (A549/K1.5 cells); presence of 5 μM FTC) | efflux (in words) ([1]; 1 μM IA) | AF (FTC inducible accumulation fold) (wild type R482 ABCG2) | AF (FTC inducible accumulation fold) (mutant G482 ABCG2) | AF (FTC inducible accumulation fold) (mutant T482 ABCG2) | AF (FTC inducible accumulation fold) ([1]; 0.1 μM TMR) [fold]
1 | CCN(CC)CCNc1ccc2nc(C)n3c4ccc(O)cc4c(=O)c1c23.Cl [C-1310] | 0.06 ± 0.008 | 1.22 ± 0.07 | 20.30 | prominent resistance | no apparent intracellular accumulation | marked restoration of nuclear accumulation | not from untransfected HEK293 cells | – | – | – | –
2 | CN(C)c1ccc2c(-c3ccc(CCl)cc3)c3ccc(=[N+](C)C)cc-3oc2c1 [TMR, tetramethylrosamine] | – | – | – | – | – | – | – | 1.4 | marked AF | marked AF | 0.8
